Laboratory results reported in PubChem BioAssay AID1259407 (Chemical Carcinogenesis Research Information System (CCRIS), 2018).
Active and inactive are the calls of the source. How the calls were made is not given here.

System: CCRIS mutagenicity, Ames/micronucleus/aberration tests
Experiment: CCRIS mutagenicity studies
[1] = Test System: AMES SALMONELLA TYPHIMURIUM, Strain/Indicator: TA98, Metabolic Activation: NONE, Method: STANDARD PLATE
[2] = Test System: AMES SALMONELLA TYPHIMURIUM, Strain/Indicator: TA100, Metabolic Activation: NONE, Method: STANDARD PLATE
[3] = Test System: AMES SALMONELLA TYPHIMURIUM, Strain/Indicator: TA1537, Metabolic Activation: NONE, Method: STANDARD PLATE

Measured: mutagenic call

Oc1c2ccccc2c2ccc3cccc4ccc1c2c43
active: Test System: CHINESE HAMSTER V-79, Strain/Indicator: V-79/8-AZAGUANINE, Metabolic Activation: NONE, Method: STANDARD PLATE active; positive

CCCCNC(=O)NS(=O)(=O)c1ccc(C)cc1
inactive: End Point: IN VITRO CHROMOSOMAL ABERRATIONS, Test System: CHO-LB CELLS, Metabolic Activation: NONE inactive; negative | End Point: IN VITRO CHROMOSOMAL ABERRATIONS, Test System: CHO-LB CELLS, Metabolic Activation: RAT, LIVER, S-9, AROCLOR 1254 inactive; negative

CCC1C(C)=NN=C(c2ccc(OC)c(OC)c2)c2cc(OC)c(OC)cc21 (stereo not drawn)
inactive: Test System: AMES SALMONELLA TYPHIMURIUM, Strain/Indicator: TA97, Metabolic Activation: NONE, Method: STANDARD PLATE inactive; negative | Test System: AMES SALMONELLA TYPHIMURIUM, Strain/Indicator: TA97, Metabolic Activation: RAT LIVER S-9, AROCLOR 1254, Method: STANDARD PLATE inactive; negative | [1] inactive; negative | Test System: AMES SALMONELLA TYPHIMURIUM, Strain/Indicator: TA98, Metabolic Activation: RAT LIVER S-9, AROCLOR 1254, Method: STANDARD PLATE inactive; negative | [2] inactive; negative | Test System: AMES SALMONELLA TYPHIMURIUM, Strain/Indicator: TA100, Metabolic Activation: RAT LIVER S-9, AROCLOR 1254, Method: STANDARD PLATE inactive; negative | Test System: AMES SALMONELLA TYPHIMURIUM, Strain/Indicator: TA102, Metabolic Activation: NONE, Method: STANDARD PLATE inactive; negative | Test System: AMES SALMONELLA TYPHIMURIUM, Strain/Indicator: TA102, Metabolic Activation: RAT LIVER S-9, AROCLOR 1254, Method: STANDARD PLATE inactive; negative | [3] inactive; negative | Test System: AMES SALMONELLA TYPHIMURIUM, Strain/Indicator: TA1537, Metabolic Activation: RAT LIVER S-9, AROCLOR 1254, Method: STANDARD PLATE inactive; negative

O=C1/C(=N\Nc2ccc(/C=C/c3ccc(N/N=C4/C=C(S(=O)(=O)O)c5cccnc5C4=O)cc3S(=O)(=O)O)c(S(=O)(=O)O)c2)C=C(S(=O)(=O)O)c2cccnc21
inactive: Test System: Mouse lymphoma, Strain/Indicator: L5178Y (tk+/tk-), Metabolic Activation: None, Method: Suspension/plate inactive; negative | Test System: Mouse lymphoma, Strain/Indicator: L5178Y (tk+/tk-), Metabolic Activation: Rat, Liver, S-9, Aroclor 1254, Method: Suspension/plate inactive; negative

CCN(CC)c1ccc2c(C)cc(=O)oc2c1
inactive: Test System: AMES SALMONELLA TYPHIMURIUM, Strain/Indicator: TA98, Metabolic Activation: HAMSTER, LIVER, S-9, AROCLOR 1254, Method: PREINCUBATION inactive; negative | Test System: AMES SALMONELLA TYPHIMURIUM, Strain/Indicator: TA98, Metabolic Activation: NONE, Method: PREINCUBATION inactive; negative | Test System: AMES SALMONELLA TYPHIMURIUM, Strain/Indicator: TA98, Metabolic Activation: RAT, LIVER, S-9, AROCLOR 1254, Method: PREINCUBATION inactive; negative | Test System: AMES SALMONELLA TYPHIMURIUM, Strain/Indicator: TA100, Metabolic Activation: HAMSTER, LIVER, S-9, AROCLOR 1254, Method: PREINCUBATION inactive; negative | Test System: AMES SALMONELLA TYPHIMURIUM, Strain/Indicator: TA100, Metabolic Activation: NONE, Method: PREINCUBATION inactive; negative | Test System: AMES SALMONELLA TYPHIMURIUM, Strain/Indicator: TA100, Metabolic Activation: RAT, LIVER, S-9, AROCLOR 1254, Method: PREINCUBATION inactive; negative | Test System: AMES SALMONELLA TYPHIMURIUM, Strain/Indicator: TA1535, Metabolic Activation: HAMSTER, LIVER, S-9, AROCLOR 1254, Method: PREINCUBATION inactive; negative | Test System: AMES SALMONELLA TYPHIMURIUM, Strain/Indicator: TA1535, Metabolic Activation: NONE, Method: PREINCUBATION inactive; negative | Test System: AMES SALMONELLA TYPHIMURIUM, Strain/Indicator: TA1535, Metabolic Activation: RAT, LIVER, S-9, AROCLOR 1254, Method: PREINCUBATION inactive; negative | Test System: AMES SALMONELLA TYPHIMURIUM, Strain/Indicator: TA1537, Metabolic Activation: HAMSTER, LIVER, S-9, AROCLOR 1254, Method: PREINCUBATION inactive; negative | Test System: AMES SALMONELLA TYPHIMURIUM, Strain/Indicator: TA1537, Metabolic Activation: NONE, Method: PREINCUBATION inactive; negative | Test System: AMES SALMONELLA TYPHIMURIUM, Strain/Indicator: TA1537, Metabolic Activation: RAT, LIVER, S-9, AROCLOR 1254, Method: PREINCUBATION inactive; negative

CC(=O)OC1Cc2c3ccc4ccccc4c3cc3ccc(C)c1c23 (stereo not drawn)
active: [2] active; positive
inactive: [1] inactive; negative

COC(=O)CN(CC(=O)OC)C1C[C@H]1N(CC(=O)OC)CC(=O)OC (stereo partly drawn)
active: Test System: CHINESE HAMSTER V-79, Strain/Indicator: V-79/OUABAIN, Metabolic Activation: NONE, Method: STANDARD PLATE active; positive

CC(C)NCC1CCc2cc(CO)c([N+](=O)[O-])cc2N1 (stereo not drawn)
active: [1] active; positive | Test System: AMES SALMONELLA TYPHIMURIUM, Strain/Indicator: TA98, Metabolic Activation: RAT, LIVER, S-9, AROCLOR 1254 OR PHENOBARBITOL, Method: STANDARD PLATE active; positive | Test System: AMES SALMONELLA TYPHIMURIUM, Strain/Indicator: TA100, Metabolic Activation: RAT, LIVER, S-9, AROCLOR 1254 OR PHENOBARBITOL, Method: STANDARD PLATE active; positive | Test System: CHINESE HAMSTER V-79, Strain/Indicator: V-79/6-THIOGUANINE, Metabolic Activation: NONE active; positive | Test System: CHINESE HAMSTER V-79, Strain/Indicator: V-79/6-THIOGUANINE, Metabolic Activation: RAT, LIVER, HEPATOCYTES active; positive | Test System: CHINESE HAMSTER V-79, Strain/Indicator: V-79/OUABAIN, Metabolic Activation: NONE active; positive | Test System: CHINESE HAMSTER V-79, Strain/Indicator: V-79/OUABAIN, Metabolic Activation: RAT, LIVER, HEPATOCYTES active; positive
inactive: Test System: AMES SALMONELLA TYPHIMURIUM, Strain/Indicator: TA100(FR1), Metabolic Activation: NONE, Method: STANDARD PLATE inactive; negative | Test System: AMES SALMONELLA TYPHIMURIUM, Strain/Indicator: TA100(FR1), Metabolic Activation: RAT, LIVER, S-9, PHENOBARBITAL AND 3-METHYLCHOLANTHRENE, Method: STANDARD PLATE inactive; negative | Test System: AMES SALMONELLA TYPHIMURIUM, Strain/Indicator: TA100, Metabolic Activation: RAT, LIVER, S-9, PHENOBARBITAL AND 3-METHYLCHOLANTHRENE, Method: STANDARD PLATE inactive; negative | Test System: AMES SALMONELLA TYPHIMURIUM, Strain/Indicator: TA1535, Metabolic Activation: NONE, Method: STANDARD PLATE inactive; negative | Test System: AMES SALMONELLA TYPHIMURIUM, Strain/Indicator: TA1535, Metabolic Activation: RAT, LIVER, S-9, AROCLOR 1254 OR PHENOBARBITOL, Method: STANDARD PLATE inactive; negative | [3] inactive; negative | Test System: AMES SALMONELLA TYPHIMURIUM, Strain/Indicator: TA1537, Metabolic Activation: RAT, LIVER, S-9, AROCLOR 1254 OR PHENOBARBITOL, Method: STANDARD PLATE inactive; negative | Test System: AMES SALMONELLA TYPHIMURIUM, Strain/Indicator: TA1538, Metabolic Activation: NONE, Method: STANDARD PLATE inactive; negative | Test System: AMES SALMONELLA TYPHIMURIUM, Strain/Indicator: TA1538, Metabolic Activation: RAT, LIVER, S-9, AROCLOR 1254 OR PHENOBARBITOL, Method: STANDARD PLATE inactive; negative

c1cnc2c(c1)[C@@H]1O[C@@H]1C1OC21 (stereo partly drawn)
inactive: [2] inactive; negative | Test System: AMES SALMONELLA TYPHIMURIUM, Strain/Indicator: TA100, Metabolic Activation: RAT, LIVER, S-9, AROCLOR 1254 (10% OR 20%), Method: STANDARD PLATE inactive; negative
